# Results reported in patent US10023614B2, “Oral peptide inhibitors of interleukin-23 receptor and their use to treat inflammatory bowel diseases” (Protagonist Therapeutics, Inc., priority 2014, dated 2018).
# System: Sprague Dawley rats, DSS-induced colitis
# Assay: Rat colitis model: 9 days of 3% DSS-containing drinking water
# Type: in vivo
# Conditions: 100 mg/kg PO, QD; compared to DSS alone, from Day 5
# Description: In this model, colitis was induced in SD rats by 9 days of ad lib exposure to drinking water containing 3% DSS. The disease activity index (DAI) score and ratio of colon weight:colon length were compared between three study groups (n=6 rats/group): vehicle, 3% DSS, and 3% DSS with positive control (sulfasalazine administered at 100 mg/kg PO, QD).
# Acute colitis was induced by feeding female Sprague Dawley rats with 3% (wt/vol) DSS dissolved in drinking water. […] A neutralizing anti-IL-23p19 antibody was used as a comparator, and was administered intraperitoneally at 4 mg/kg on the same day and fifth day after starting DSS. To quantify colitis with clinical activity, disease activity index (DAI) was determined daily for each animal as an average of three parameters: body weight change (scale 0-3), stool consistency (scale 0-3) and hemoccult blood (scale 0-3), as shown in Table 15. At necropsy, the entire colon was removed from the cecum to the rectum. The colon was measured for length, flushed with PBS to remove feces, weighed, and opened longitudinally to determine macroscopic score.
# Statistical analysis for significance was compared to the vehicle treated group and was determined using Student's T-test (GraphPad Prism). Differences were noted as significant *p<0.05, **p<0.01, ***p<0.001, ****p<0.0001.
smiles,measurement,value
O=C(O)c1cc(/N=N/c2ccc(S(=O)(=O)Nc3ccccn3)cc2)ccc1O [sulfasalazine],disease activity index (DAI) score,attenuated the disease score
